Patent US6262036A, “Method for inhibiting RNA translation using chimeric oligonucleoside compounds” (priority 2000, dated 2001)
Where “and” joins values, the source holds several entries; their conditions need not be identical. Equal values may be shown once.

What was measured:
[1] = test system: endogenous eukaryotic RNaseH derived from HeLa cell nuclear extracts; assay type: biochemical; conditions: 10 μM oligomer, 1 μM RNA target
S1-endonuclease = test: Stability to nuclease digestion by S1-endonuclease (Example 37); assay type: in vitro ADME; conditions: S1-endonuclease 0.5 units/mL, pH 5.0, 37° C.; 50% full length oligomer digested
Procedure: The following oligomers were tested for nuclease stability in the presence of S1-endonuclease.
S1-endonuclease was purchased from Promega Corp. (Catalog #E576B, Madison, Wis.). Aliquots of each chimeric oligomer (0.05-0.075 OD260 units) were individually added to polypropylene microcentrifuge tubes containing S1-endonuclease (0.5 units/mL) in 30 mM sodium acetate (pH 5.0), 50 mM NaCl, 1.0 mM zinc acetate and 5% glycerol; total reaction volume=10 μL. These tubes were incubated at 37° C. for specified time periods, quickly frozen in dry ice and then stored in a freezer at -20° C. […] Column=Vydac Protein C4 (catalog #214TP54, 4.9 mm i.d.×250 mm long). Buffer A=50 mM triethylammonium acetate (pH 7)/1% acetonitrile; Buffer B=50 mM triethylammonium acetate (pH 7)/50% acetonitrile. […] The samples were diluted with water (50 μL) and injected onto the column using a 100 μL sample loop. Peaks corresponding to full length oligomer and its degradation products were detected by monitoring at 260 nm. The amount of degradation occurring in each reaction was determined by measuring the reduction in peak area for the full-length oligomer (identified by comparison to an external control and/or by coinjecting undigested oligomer as an internal control). The data is shown in tabular format below, and in graphic format in FIG. 1.

control CAT mRNA = test: Cell-free translation of control CAT mRNA in rabbit reticulocyte lysates (Example 39); assay type: biochemical; conditions: 0.2 or 1 μM
Procedure: (§1) A target mRNA having complementarity to these oligomers at the initiation codon region was prepared by standard cloning techniques with […] catalyzed by T7 polymerase (Promega MEGAscript kit for uncapped RNA), according to the manufacturer's protocol. Control CAT mRNA was obtained from GIBCO as a control for specificity.
Target mRNA and control CAT mRNA were translated in a cell-free translation assay in rabbit reticulocyte lysates (Promega), in the presence of ^35 [S]-Cys (NEN/DuPont) following the manufacturer's directions. Oligos 2567-1 and 3169-1 were added to individual translation reactions at […], final concentrations. RNAse-H (Promega Corp.) was added to all the translation reactions at 0.04 units/ul. Each condition was run in triplicate. […] At the end of the translation reactions, proteins were denatured with Laemmli Sample Buffer (Novex) and the amounts of target proteins synthesized in each case were evaluated after immunoprecipitation with an hyperimmune antibody serum followed by gel fractionation of the protein products (10-20% gradient SDS-PAGE gels, Novex) and phosphoimage analysis. The amount of control CAT protein synthesized in each case was evaluated after gel fractionation of one aliquot of the denatured translation reaction (10-20% gradient SDS-PAGE gels, Novex) and phosphoimage analysis.

[2] = Stability to nuclease digestion in 10% fetal calf serum (Example 38); assay type: in vitro ADME; conditions: pH 8.0, 37° C., 50% full length oligomer digested, first three time points
Procedure: Multiple samples of each chimeric oligomer were prepared in 1.5 mL polypropylene microcentrifuge tubes on ice. Each sample contained oligomer (0.1 OD260 unit), 10% fetal calf serum (FCS, Gemini Bioproducts, Calabasas, Calif.), 20 mM HEPES (pH 8.0), 0.2% paramethylsulfonyl fluoride (PMSF), 175 mM KCl, 0.1 mM dithiothreitol, 0.1 mM EDTA, 2 mM MgCl2 and 4% glycerol--total volume=100 μL. The samples were incubated at 37° C. for specified time periods and then diluted with 0.4% NP-40/acetonitrile (35 μL), quickly frozen on dry ice and stored at -20° C. Samples were then individually thawed, diluted with water (635 μL) and analyzed immediately by reversed-phase HPLC according to the method given in the preceding example (except that a 2 mL sample loop was used to load the samples onto the column). Results are shown in tabular format below, and in graphical format in FIG. 2.

target mRNA [3] = test: Cell-free translation of target mRNA in rabbit reticulocyte lysates (Example 39); assay type: biochemical
Procedure: as §1
Target mRNA and control CAT mRNA were translated in a cell-free translation assay in rabbit reticulocyte lysates (Promega), in the presence of ^35 [S]-Cys (NEN/DuPont) following the manufacturer's directions. Oligos 2567-1 and 3169-1 were added to individual translation reactions at […], final concentrations. RNAse-H (Promega Corp.) was added to all the translation reactions at 0.04 units/ul. Each condition was run in triplicate. Translation reactions were incubated at 37° C. for 1 hour. At the end of the translation reactions, proteins were denatured with Laemmli Sample Buffer (Novex) and the amounts of target proteins synthesized in each case were evaluated after immunoprecipitation with an hyperimmune antibody serum followed by gel fractionation of the protein products (10-20% gradient SDS-PAGE gels, Novex) and phosphoimage analysis. The amount of control CAT protein synthesized in each case was evaluated after gel fractionation of one aliquot of the denatured translation reaction (10-20% gradient SDS-PAGE gels, Novex) and phosphoimage analysis.

[4] = test system: complementary synthetic RNA target; test: Binding affinities of chimeric backbone oligomers to RNA (Example 35); design: KA (37° C.): unit not given here; conditions: for Tm: 1:1 molar ratio, 2.4 micromolar total strand, pH 7.2, 100 mM NaCl; for KA (37° C.): two-state model fit
Procedure: The following oligonucleotides were tested for their ability to hybridize to a complementary synthetic RNA target.
The bases shown in parentheses contain the backbone modification indicated in the middle set of brackets for each description, and likewise the terminal portions of the oligomers contain linkage structures as shown in the terminal sets of brackets. The PS/DE notation indicates an alternating array of bases beginning with a phosphorothioate linkage. For example, if there are five bases in a sequence denoted as PS/DE, they include three phosphorothioate (PS) bonds and two phosphodiester (DE) bonds.
Each oligomer was mixed with its complementary synthetic RNA target in a 1:1 molar ratio in a buffer system consisting of 20 mM sodium phosphate buffer (pH 7.2), 100 mM NaCl, 0.03% potassium sarkosylate and 0.1 mM EDTA; total strand concentration=2.4 micromolar. The resulting solutions were heated to 70° C. and slowly cooled to 4° C. over a time period of approximately 4-6 hours. […] The binding constants at 37° C.

target mRNA [5] = test: Cleavage of target mRNA in the presence of RNAseH (Example 40); assay type: biochemical; conditions: for % of target mRNA cleavage: 30 minutes, estimated by visual inspection of the gel; for specificity of target mRNA cleavage: denaturing gel
Procedure: A target mRNA having complementarity to these oligomers at the initiation codon region was prepared by standard cloning techniques with transcription using a T7 polymerase cell-free assay (Promega MEGAscript kit for uncapped RNA), according to the manufacturer's protocol. The resulting mRNA transcript is approximately 340 nt in length.
The ability to cleave this target mRNA, in the presence of RNAseH and either of oligomers 2567-1 {[MP]-[DE]-[MP]} and 3169-1 {[MP(Rp)/DE]-[DE]-[MP(Rp)/DE]} was determined as follows.
Cell-free transcribed mRNA (100 nM) was incubated at 37° C., in a cell-free translation buffer (containing 3.5 mM MgCl2, 25 mM KCl, 70 mM NaCl and 20 mM potassium acetate), in the presence of 0.04 units/μl of RNAseH (Promega) and either of oligomers 2567-1 or 3169-1 at 0, 0.01, 0.1, 1, or 10 μM. After 30 minutes, the RNA was extracted, denatured and run in a denaturing gel. After the run, the RNA was stained with ethidium bromide and its integrity was determined by visual observation of the RNA bands present in the gel.

pG1035 (SplicerCAT) = test: Inhibition of CAT expression, splicing target pG1035 (SplicerCAT), in COS-7 cells; assay type: cell-based, African Green Monkey; conditions: 1.0 μM oligomer; ± std error; normalized to protein and luciferase; chimeric oligomers also normalized to pG1036
Procedure: (§2) COS-7 cells were transiently transfected with plasmids encoding either a target reporter gene or a control non-target reporter gene. These cells were then treated with various chimeric antisense or control oligomers and then assayed for the expression of the reporter genes.
pG1035: Splicer CAT, inserted into a pRc/CMV vector
COS 7 cells were plated at 1.5×10^5 cells/well in a 12 well plate format on the day before transfections began. All cultures were maintained at 37° C. On the next day, the transfection mixes were prepared. For each well of a 12 well plate, 1.0 μM oligomer was combined with 1 μg pGL2 or pSVβ+1 μg of the target CAT plasmid in 0.5 ml of Optimem (Gibco/BRL) and 18.75 μg Transfectam (for chimeric oligomers, Promega) or Lipofectamine (for all PS oligomers, Promega) also in 0.5 ml of Optimem. These quantities gave a 6.9 or 4.5 or 2.0 to 1 cationic lipid to oligomer plus DNA ratio, respectively, in one milliliter total. pGL2 and pSVβ served as transfection and oligomer specificity controls. […]
(§3) The cell lysates were then assayed for CAT, and luciferase or […] activity, and the total protein concentration was determined as described below. […]
(§4) […] of reaction mixture was then added to each tube, which was then incubated for, typically, approximately 1 hour in a 37° C. oven. […] The sample was then counted in a Packard scintillation counter.
(§5) This assay was performed generally as follows according to standard procedures. 20 μof lysate was combined with 100 μl of luciferase assay reagent (Promega) and counted in a scintillation counter (Packard) within 20 seconds (as recommended by Promega). […]
Six μl of lysate per well was added, followed by 300 μl Coomassie Protein Assay Reagent (Pierce) per well. The individual sample plates were then read at A570 on a microplate reader (Molecular Devices). […]
Oligomers were transfected into COS-7 cells and lysates were made and assayed as described previously. […] N.D.=not determined. […]

pG1036 (wild-type CAT) = test: Inhibition of CAT expression, non-splicing control pG1036 (wild-type CAT), in COS-7 cells; assay type: cell-based, African Green Monkey; conditions: 1.0 μM oligomer; ± std error; normalized to protein and luciferase
Procedure: as §2
pG1036: Wild-type CAT, inserted into a pRc/CMV vector
COS 7 cells were plated at 1.5×10^5 cells/well in a 12 well plate format on the day before transfections began. All cultures were maintained at 37° C. On the next day, the transfection mixes were prepared. […] These quantities gave a 6.9 or 4.5 or 2.0 to 1 cationic lipid to oligomer plus DNA ratio, respectively, in one milliliter total. pGL2 and pSVβ served as transfection and oligomer specificity controls. […]
as §3, §4, §5

Substance | RNaseH Cleavage after 2 Hrs. at 37° C. [1] [%] | Half-Life for Degradation (S1-endonuclease) [h] | inhibition of control CAT mRNA translation (control CAT mRNA) | Half-Life for Degradation [2] [h] | inhibition of target mRNA translation (target mRNA [3]; 0.2 μM) | inhibition of target mRNA translation (target mRNA [3]; 1 μM) | Tm [4] [°C] | KA (37° C.) [4] | % of target mRNA cleavage (target mRNA [5]; 0.01 μM) [%] | % of target mRNA cleavage (target mRNA [5]; 0.1 μM) [%] | % of target mRNA cleavage (target mRNA [5]; 1 μM) | % of target mRNA cleavage (target mRNA [5]; 10 μM) [%] | specificity of target mRNA cleavage (target mRNA [5]) | percent inhibition of CAT expression, pG1035 = splicing (pG1035 (SplicerCAT)) [%] | percent inhibition of CAT expression, pG1036 = non-splicing (pG1036 (wild-type CAT)) [%]
3169-1: 5'-GTCTTCCA(TGCAT)GTTGTCC-3' [MP(Rp)/DE][DE][MP(Rp)/DE] [Oligomer 3169-1] | 52.0 | 0.9 | little inhibition | 3.4 | approximately 50% | ~90% | 62.6 | 6.0 × 10^14 | 5 | 40 | ~ 98% and 98% | 100 | good specificity, cleaving the target mRNA in one position | – | –
XV-6: 24mer, all phosphorothioate: 5' cac tca atc aat gac tag tct gca 3' (CACTCAATCAATGACTAGTCTGCA; all phosphorothioate, sugars by position and methylation of C not given here) | – | – | – | – | – | – | – | – | – | – | – | – | – | 23 ± 15 | 30 ± 4
2567-1: 5'-GTCTTCCA(TGCAT)GTTGTCC-3' [MP][DE][MP] [Oligomer 2567-1] | – | 1.7 | little inhibition | 5.8 | approximately 0% | approximately 50% | 45.6 | 2.9 × 10^7 | 2 | 15 | ~ 50% and 50% | 80 | good specificity, cleaving the target mRNA in one position | – | –
XV-5: 24mer, all phosphorothioate: 5' cac tca cct tta ggg aaa tag gcc 3' (CACTCACCTTTAGGGAAATAGGCC; all phosphorothioate, sugars by position and methylation of C not given here) | – | – | – | – | – | – | – | – | – | – | – | – | – | 32 ± 1 | 35 ± 1
